Experimental data reported in patent US8921376B2, “Pyrrolopyridines useful as inhibitors of protein kinase” (Vertex Pharmaceuticals Incorporated, priority 2005, dated 2014).

Tests used:
Assay type in all cases: biochemical
Details in all cases: Table 6; enzyme inhibition data (Ki)
[1] = target: T1, JAK3 (Homo sapiens, UniProt P52333); assay: JAK3 inhibition assay (33P incorporation into poly(Glu)4Tyr)
T1 sequence (P52333 1-1124): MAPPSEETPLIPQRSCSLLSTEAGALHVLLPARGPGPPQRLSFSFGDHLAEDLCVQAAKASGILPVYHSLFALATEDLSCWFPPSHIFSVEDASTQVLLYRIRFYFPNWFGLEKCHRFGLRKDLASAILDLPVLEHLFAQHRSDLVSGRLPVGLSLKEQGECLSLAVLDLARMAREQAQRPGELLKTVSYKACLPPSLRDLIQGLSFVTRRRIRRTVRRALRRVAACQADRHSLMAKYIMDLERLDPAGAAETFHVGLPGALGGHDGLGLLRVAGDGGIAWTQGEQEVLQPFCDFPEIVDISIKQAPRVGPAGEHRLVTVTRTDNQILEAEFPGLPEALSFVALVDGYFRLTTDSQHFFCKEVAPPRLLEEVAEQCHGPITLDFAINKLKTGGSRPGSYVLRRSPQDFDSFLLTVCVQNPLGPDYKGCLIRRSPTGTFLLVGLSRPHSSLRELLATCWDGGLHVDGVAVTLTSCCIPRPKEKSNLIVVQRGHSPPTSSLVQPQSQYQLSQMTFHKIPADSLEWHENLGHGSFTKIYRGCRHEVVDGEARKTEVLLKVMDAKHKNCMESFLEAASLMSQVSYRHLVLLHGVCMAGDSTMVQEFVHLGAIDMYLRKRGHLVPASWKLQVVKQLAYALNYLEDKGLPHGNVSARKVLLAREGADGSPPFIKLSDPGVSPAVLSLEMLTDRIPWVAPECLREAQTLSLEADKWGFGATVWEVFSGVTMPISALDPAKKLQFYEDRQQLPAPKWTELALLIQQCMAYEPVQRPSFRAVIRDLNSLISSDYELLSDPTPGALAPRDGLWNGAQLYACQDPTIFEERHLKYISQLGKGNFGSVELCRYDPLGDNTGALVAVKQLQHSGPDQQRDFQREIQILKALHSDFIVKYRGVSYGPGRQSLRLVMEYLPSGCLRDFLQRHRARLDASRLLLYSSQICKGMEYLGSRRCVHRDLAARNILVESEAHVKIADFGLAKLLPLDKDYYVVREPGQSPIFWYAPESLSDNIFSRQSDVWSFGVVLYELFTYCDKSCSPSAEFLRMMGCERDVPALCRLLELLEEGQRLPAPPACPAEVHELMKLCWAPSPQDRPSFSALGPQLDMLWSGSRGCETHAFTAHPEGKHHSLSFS
How it was run: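 Human JAK3 at 1 nM phosphorylated 1 μM poly(Glu)4Tyr using 5 μM [33P]ATP in HEPES pH 7.4 buffer with MgCl2, DTT and BSA. Reactions ran 20 min at 25° C. and were stopped with TCA. 33P incorporation was measured by scintillation after glass-fiber filter capture.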

[2] = target: JAK2 (Homo sapiens, UniProt O60674); assay: JAK2 inhibition assay (as Example 3 with JAK-2 enzyme)
How it was run: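 Radiometric JAK2 kinase assay: poly(Glu)4Tyr substrate at final 15 μM, ATP at final 12 μM with [33P]; buffer 100 mM HEPES pH 7.4, 1 mM DTT, 10 mM MgCl2, 25 mM NaCl, 0.01% BSA. 20 min at 25 °C, TCA-stopped, 33P incorporation counted after filter capture.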

[3] = target: ROCK I (Homo sapiens, UniProt Q13464); assay: ROCK-I inhibition assay (radioactive enzyme assay, MBP substrate)
How it was run: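 Human ROCK at 5 nM phosphorylated 27 μM myelin basic protein with 13 μM [γ-33P]ATP (final) in HEPES pH 7.5, MgCl2, NaCl, DTT and 1.5% DMSO. Reactions ran 2 h at room temperature before TCA quench and filter-plate scintillation counting. After background subtraction, data were fit to give Ki(app).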

Sequence of ROCK I (Q13464 whole entry): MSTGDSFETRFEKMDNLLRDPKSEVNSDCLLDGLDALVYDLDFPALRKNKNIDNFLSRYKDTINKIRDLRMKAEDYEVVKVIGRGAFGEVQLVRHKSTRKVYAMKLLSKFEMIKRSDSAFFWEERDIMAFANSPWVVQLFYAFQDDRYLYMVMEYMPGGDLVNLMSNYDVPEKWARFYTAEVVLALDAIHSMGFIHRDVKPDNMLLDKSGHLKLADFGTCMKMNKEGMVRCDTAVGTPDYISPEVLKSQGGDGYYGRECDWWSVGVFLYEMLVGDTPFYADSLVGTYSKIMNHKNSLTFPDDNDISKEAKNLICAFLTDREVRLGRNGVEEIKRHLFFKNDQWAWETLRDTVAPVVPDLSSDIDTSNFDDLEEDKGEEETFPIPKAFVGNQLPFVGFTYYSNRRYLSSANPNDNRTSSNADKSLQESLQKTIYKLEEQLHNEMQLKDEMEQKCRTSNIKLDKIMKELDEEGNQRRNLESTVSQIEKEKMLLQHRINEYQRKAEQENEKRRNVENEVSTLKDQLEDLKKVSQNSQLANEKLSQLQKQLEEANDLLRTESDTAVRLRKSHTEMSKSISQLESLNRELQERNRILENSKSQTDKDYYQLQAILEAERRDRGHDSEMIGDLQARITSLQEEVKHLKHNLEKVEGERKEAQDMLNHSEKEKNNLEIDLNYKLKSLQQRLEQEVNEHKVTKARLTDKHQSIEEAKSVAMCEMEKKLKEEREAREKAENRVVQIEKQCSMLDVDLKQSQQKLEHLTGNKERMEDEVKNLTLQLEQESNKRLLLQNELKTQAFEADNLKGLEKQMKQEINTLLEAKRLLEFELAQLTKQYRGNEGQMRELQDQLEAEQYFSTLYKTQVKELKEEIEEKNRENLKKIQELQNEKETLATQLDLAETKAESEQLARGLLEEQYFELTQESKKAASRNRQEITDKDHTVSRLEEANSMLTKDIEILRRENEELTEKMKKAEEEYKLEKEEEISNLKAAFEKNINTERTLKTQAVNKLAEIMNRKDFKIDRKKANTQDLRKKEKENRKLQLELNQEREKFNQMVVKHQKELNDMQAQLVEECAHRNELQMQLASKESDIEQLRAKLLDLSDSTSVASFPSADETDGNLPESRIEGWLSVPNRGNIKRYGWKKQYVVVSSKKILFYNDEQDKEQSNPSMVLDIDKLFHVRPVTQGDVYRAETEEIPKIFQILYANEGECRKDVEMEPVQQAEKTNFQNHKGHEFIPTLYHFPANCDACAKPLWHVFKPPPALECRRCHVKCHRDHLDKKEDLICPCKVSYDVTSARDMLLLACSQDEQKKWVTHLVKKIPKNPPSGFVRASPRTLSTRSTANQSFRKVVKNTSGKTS
Sequence of JAK2 (O60674 whole entry): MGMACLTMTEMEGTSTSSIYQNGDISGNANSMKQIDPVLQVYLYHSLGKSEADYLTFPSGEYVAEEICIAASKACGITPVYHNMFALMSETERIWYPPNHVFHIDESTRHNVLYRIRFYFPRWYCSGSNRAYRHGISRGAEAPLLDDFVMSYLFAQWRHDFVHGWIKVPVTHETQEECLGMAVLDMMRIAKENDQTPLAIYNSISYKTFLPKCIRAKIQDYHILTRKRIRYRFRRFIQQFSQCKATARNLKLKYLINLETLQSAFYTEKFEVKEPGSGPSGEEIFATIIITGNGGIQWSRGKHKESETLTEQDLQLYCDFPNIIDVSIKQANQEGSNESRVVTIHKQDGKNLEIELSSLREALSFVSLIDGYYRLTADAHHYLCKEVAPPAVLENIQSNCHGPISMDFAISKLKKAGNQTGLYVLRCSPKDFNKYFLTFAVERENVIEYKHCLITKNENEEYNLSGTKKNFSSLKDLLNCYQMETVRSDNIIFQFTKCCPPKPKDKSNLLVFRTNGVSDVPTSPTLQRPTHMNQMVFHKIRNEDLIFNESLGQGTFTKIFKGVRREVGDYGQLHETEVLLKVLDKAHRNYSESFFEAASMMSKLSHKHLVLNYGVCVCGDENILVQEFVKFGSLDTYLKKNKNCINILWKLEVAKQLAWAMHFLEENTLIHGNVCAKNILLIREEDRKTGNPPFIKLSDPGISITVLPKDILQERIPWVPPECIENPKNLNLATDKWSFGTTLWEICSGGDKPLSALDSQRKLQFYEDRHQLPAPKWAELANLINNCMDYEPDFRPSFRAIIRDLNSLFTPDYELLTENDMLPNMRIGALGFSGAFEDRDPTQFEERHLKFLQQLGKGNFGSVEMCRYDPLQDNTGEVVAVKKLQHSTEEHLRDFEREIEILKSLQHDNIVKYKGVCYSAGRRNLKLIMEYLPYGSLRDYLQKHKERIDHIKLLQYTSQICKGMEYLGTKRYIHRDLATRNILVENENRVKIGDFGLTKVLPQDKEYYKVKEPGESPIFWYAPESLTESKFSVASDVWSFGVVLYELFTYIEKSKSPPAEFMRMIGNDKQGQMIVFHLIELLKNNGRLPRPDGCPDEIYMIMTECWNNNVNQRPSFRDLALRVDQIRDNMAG

Structure (SMILES)	Ki [1]	Ki [2]	Ki [3]
CNC(=O)c1ccc(-c2ccnc3[nH]ccc23)cc1 [compound 272]	< 500 nM	< 500 nM	< 500 nM
CCNC(=O)c1ccc(-c2ccnc3[nH]ccc23)cc1 [compound 273]	500 to 5000 nM	< 500 nM	500 to 5000 nM
O=C(O)c1cc(-c2ccnc3[nH]ccc23)c[nH]1 [compound 274]	< 500 nM	500 to 5000 nM	> 4000 nM
O=C(Nc1ccccc1)c1cc(-c2ccnc3[nH]ccc23)c[nH]1 [compound 275]	< 500 nM	< 500 nM	< 500 nM
O=C(NCC(F)(F)F)c1cc(-c2c(Cl)cnc3[nH]ccc23)c[nH]1 [compound 276]	< 500 nM	< 500 nM	500 to 5000 nM
CNC(=O)c1cc(-c2c(Cl)cnc3[nH]ccc23)c[nH]1 [compound 277]	< 500 nM	< 500 nM	500 to 5000 nM
CCNC(=O)c1cc(-c2c(Cl)cnc3[nH]ccc23)c[nH]1 [compound 278]	< 500 nM	< 500 nM	> 4000 nM
CCCNC(=O)c1cc(-c2c(Cl)cnc3[nH]ccc23)c[nH]1 [compound 279]	< 500 nM	< 500 nM	500 to 5000 nM
CC(C)NC(=O)c1cc(-c2c(Cl)cnc3[nH]ccc23)c[nH]1 [compound 280]	< 500 nM	< 500 nM	500 to 5000 nM
O=C(NC1CC1)c1cc(-c2c(Cl)cnc3[nH]ccc23)c[nH]1 [compound 281]	< 500 nM	< 500 nM	500 to 5000 nM
CCNC(=O)c1cc(-c2ccnc3[nH]ccc23)c[nH]1 [compound 282]	< 500 nM	< 500 nM	< 500 nM
CCCNC(=O)c1cc(-c2ccnc3[nH]ccc23)c[nH]1 [compound 283]	< 500 nM	< 500 nM	< 500 nM
CCC(CC)NC(=O)c1cc(-c2ccnc3[nH]ccc23)c[nH]1 [compound 284]	< 500 nM	< 500 nM	< 500 nM
O=C(NC1CC1)c1cc(-c2ccnc3[nH]ccc23)c[nH]1 [compound 285]	< 500 nM	< 500 nM	< 500 nM
O=C(NCC1CC1)c1cc(-c2ccnc3[nH]ccc23)c[nH]1 [compound 286]	< 500 nM	< 500 nM	< 500 nM
O=C(NC1CCC1)c1cc(-c2ccnc3[nH]ccc23)c[nH]1 [compound 287]	< 500 nM	< 500 nM	< 500 nM
O=C(NC1CCCCC1)c1cc(-c2ccnc3[nH]ccc23)c[nH]1 [compound 288]	< 500 nM	< 500 nM	< 500 nM
CC[C@@H](C)NC(=O)c1cc(-c2ccnc3[nH]ccc23)c[nH]1 [compound 289]	< 500 nM	< 500 nM	< 500 nM
CC[C@H](C)NC(=O)c1cc(-c2ccnc3[nH]ccc23)c[nH]1 [compound 290]	500 to 5000 nM	< 500 nM	< 500 nM
CC(C)CNC(=O)c1cc(-c2ccnc3[nH]ccc23)c[nH]1 [compound 291]	< 500 nM	< 500 nM	< 500 nM
O=C(NCC(F)F)c1cc(-c2ccnc3[nH]ccc23)c[nH]1 [compound 292]	< 500 nM	< 500 nM	< 500 nM
O=C(NCCC(F)(F)F)c1cc(-c2ccnc3[nH]ccc23)c[nH]1 [compound 293]	< 500 nM	< 500 nM	< 500 nM
C#CCNC(=O)c1cc(-c2ccnc3[nH]ccc23)c[nH]1 [compound 294]	< 500 nM	< 500 nM	< 500 nM
N#CCNC(=O)c1cc(-c2ccnc3[nH]ccc23)c[nH]1 [compound 295]	< 500 nM	< 500 nM	< 500 nM
